Measurements as given in patent publication US9770451B2, “Composition including ATM inhibitor for reducing cellular senescence and use of the composition” (Samsung Electronics Co., Ltd., priority 2014, dated 2017).

How the values were obtained:
[1] = tested on: senescent fibroblasts (passage 37); assay: Soft agar assay for abnormal (cancer-like) proliferation; assay type: cell-based, human; details: 0.5 μM, 4 weeks; 293T cells formed colonies
Description: In addition, to confirm whether the cells proliferated by the culture proliferate abnormally, for example, proliferate like cancer cells, a soft agar assay was carried out. First, the DMEM medium containing 10% FBS was mixed with a 1.6% agar medium at a ratio of 1:1, so as to prepare a medium containing 0.8% agar formulation to coat the bottom of each well of a 6-well plate. […] As a control group, a 293T cell line (ATCC® CRL-11268™) from human embryonic kidney was used. […] The same procedure applies similarly to the remaining images b, c, and d. In FIG. 3, HDF M11 p37 refers to a human dermal fibroblast M11 strain, which is a sub-cultured fibroblast (passage 37). In FIG. 3, KU-60019-KU-60019 refers to a process of continuously adding KU-60019 to a medium and culturing for 28 days; KU-60019-DMSO refers to a process of adding KU-60019 to a medium and culturing for 14 days, removing KU-60019, and then, culturing the cells in the absence of KU-60019 for another 14 days; DMSO-DMSO refers to a condition where KU-60019 is not added at all and the cells cultured for 28 days. The 293T cells were cultured under the same condition as DMSO-DMSO, and then, applied to the soft agar assay.

[2] = tested on: senescent fibroblasts (passage 37); assay: Cell proliferation and formation of cell colonies (crystal violet staining); assay type: cell-based, human; details: among 0.1, 0.5 and 2 μM
Description: A human fibroblast cell line was inoculated into a Dulbecco's Modified Eagle's medium (DMEM) containing 10% fetal bovine serum (FBS), 100 units/ml of penicillin, and 100 μg/ml of streptomycin (wherein these two antibiotics were purchased from Gibro-BRL, Grand Island, N.Y.), and then, cultured in a 5% CO2 incubator at a temperature of 37° C. The fibroblast cell line (i.e., M11 strain) was a cell line derived from the foreskin of a child. When the cells were grown to about 85% confluency in a plate, the cells were subjected to subculture. The early subculture was carried out at a split ratio of 1:4, and the late subculture was carried out at a split ratio of 1:2. When the cell doubling time was 14 days, the cells were considered to be senescent fibroblasts (passages 35 to 37).
To determine the optimal concentration upon the treatment with an ATM-kinase inhibitor KU-60019 (SELLECKCHEM, S1570, salt), the senescent fibroblasts (passage 37) were inoculated into each well of a 6-well plate at a concentration of 2,000 cells/well, and then, KU-60019 was added to each well of the 6-well plate ([…]). In addition, as a negative control group, the cells were cultured under the same conditions as described above, except that a medium used herein contained a dimethyl sulfoxide (DMSO) (0.05 (v/v) %) medium. […]

C57BL/6J mice = assay: Wound healing assay (full-thickness punch-biopsy wounds); assay type: in vivo, mouse; details: for closure difference between KU-60019-treated and DMSO-treated wounds: day 7; for mean wound closure: day 7, topical 5 μM in 30% Pluronic gel daily
Description: To further test whether ATMi can promote cutaneous wounding healing in young (3 months old) and old (19 months old) male mice (C57BL/6J mice), four full-thickness punch-biopsy wounds (8 mm in diameter) were created on the dorsal skin of mouse (5 mice/experimental group), drug at a concentration of 5 μM KU-60019 in 30% Pluronic gel (Pluronic F-127 Sigma, P2443-1 KG) 0.5 mL was applied to wounds every day, and then covered the wounds with Telfa sponges (Kendall Health Care, Mansfield, Mass., USA). All animal studies were reviewed and approved by the […] Animal Care and Use Committee of SKKU School of Medicine (SUSM). SUSM is an Association for Assessment and Accreditation of Laboratory Animal Care international accredited facility and abides by the Institute for Laboratory Animal Research guide. Wounds were photographed for 10 days. Immunohistochemistry analyses were performed on 5 μm paraffin embedded sections as described previously (Lin et. al., 2004. Developmental Biology 270, 474-486). Primary antibodies used for immunohistochemistry were mouse anti-α-smooth muscle actin (Sigma, F3777-2ML, 1:500), and mouse anti-PCNA (Santa Cruz Biotechnology, SC-56, 1:500). Secondary antibodies used for immunohistochemistry were EnVision™ Detection System (DAKO, K5007). Masson-Trichrome staining was performed according to the manufacturer's instructions (Polysciences Inc., Warrington Pa., USA).
To further test whether KU-60019 can promote cutaneous wounding healing in young (3 months old) and old (19 months old) mice, we created full-thickness punch-biopsy wounds 8 mm in diameter on the dorsal skin of 10 mice (5 mice/each group), applied to the wounds at a concentration of 5 μM KU-60019 in 30% Pluronic gel (Pluronic F-127 Sigma, P2443-1 KG), and then covered the wounds with Telfa sponges (Kendall Health Care, Mansfield, Mass., USA). Pluronic F-127 is a hydrogel widely used in pharmaceuticals as a drug delivery vehicle for a variety of soluble mediators, including antibodies, cytokines, and growth factors. […] Only 13.5% closure difference was shown between KU-60019-treated and DMSO-treated wounds. […] 20% closure difference was shown between KU-60019-treated and DMSO-treated wounds. […] KU-60019-treated wounds are capable of complete and efficient closure.

In the case of `C[C@@H]1CN(CC(=O)Nc2ccc3c(c2)Cc2cccc(-c4cc(=O)cc(N5CCOCC5)o4)c2S3)C[C@H](C)O1` [KU-60019, 2-((2S,6R)-2,6-dimethylmorpholino)-N-(5-(6-morpholino-4-oxo-4H-pyran-2-yl)-9H-thioxanthen-2-yl)acetamide], the “colony formation in soft agar” value [1] is reported as “colonies were not formed”, the “most effective concentration selected” value [2] is reported as 0.5 µM and the “closure difference between KU-60019-treated and DMSO-treated wounds” value (C57BL/6J mice; old mouse (19 months old)) is reported as 20%. The mean wound closure (C57BL/6J mice; old mouse (19 months old), control 49.4%) was 69.4%, the “closure difference between KU-60019-treated and DMSO-treated wounds” value (C57BL/6J mice; young mouse (3 months old)) was 13.5% and the mean wound closure (C57BL/6J mice; young mouse (3 months old), control 74.1%) was 87.6%.
